Where “and” joins values, the source holds several entries; their conditions need not be identical. Equal entries are not always repeated.
Legend:
Assay in all cases: TMT LC-MSMS of 11-labelled proteins
Type in all cases: cell-based
[1] = biological target: T1, staphylococcal nuclease domain-containing protein 1 (SND1) (Homo sapiens, UniProt Q7KZF4)
T1 sequence (Q7KZF4 1-910): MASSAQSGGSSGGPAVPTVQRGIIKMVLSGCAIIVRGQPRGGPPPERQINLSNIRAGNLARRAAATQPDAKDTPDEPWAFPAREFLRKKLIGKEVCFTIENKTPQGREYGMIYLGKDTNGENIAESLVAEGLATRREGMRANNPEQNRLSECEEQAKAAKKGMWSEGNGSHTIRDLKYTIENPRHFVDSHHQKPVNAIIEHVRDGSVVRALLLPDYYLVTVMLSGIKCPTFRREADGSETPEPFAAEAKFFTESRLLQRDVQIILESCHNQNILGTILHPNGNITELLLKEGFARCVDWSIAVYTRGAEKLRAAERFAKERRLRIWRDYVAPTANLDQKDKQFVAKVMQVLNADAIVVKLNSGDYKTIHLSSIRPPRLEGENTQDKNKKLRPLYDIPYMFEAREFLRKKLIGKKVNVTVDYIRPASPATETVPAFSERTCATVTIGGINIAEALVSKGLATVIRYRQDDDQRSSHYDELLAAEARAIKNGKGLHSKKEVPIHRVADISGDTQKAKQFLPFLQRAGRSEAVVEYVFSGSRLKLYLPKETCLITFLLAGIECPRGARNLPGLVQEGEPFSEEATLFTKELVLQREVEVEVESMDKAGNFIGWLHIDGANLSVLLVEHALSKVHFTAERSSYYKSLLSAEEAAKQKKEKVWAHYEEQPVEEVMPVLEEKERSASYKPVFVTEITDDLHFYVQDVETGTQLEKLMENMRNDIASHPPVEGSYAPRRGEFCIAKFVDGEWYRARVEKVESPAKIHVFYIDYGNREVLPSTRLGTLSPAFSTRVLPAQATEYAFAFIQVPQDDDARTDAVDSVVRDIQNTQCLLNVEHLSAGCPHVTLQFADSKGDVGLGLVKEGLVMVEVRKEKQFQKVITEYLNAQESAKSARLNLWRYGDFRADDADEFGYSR

[2] = biological target: Isoform 2 of Elongation factor 1-gamma (EEF1G) (Homo sapiens, UniProt P26641); conditions: SKBR3 cells; for Abundance Ratio: (11) / (DMSO): 11 0.5 µM 3 h vs DMSO; for Abundance Ratio: (11) / (11 with PU-H71): 11 0.5 µM 3 h vs with PU-H71 10 µM
Sequence of Isoform 2 of Elongation factor 1-gamma (EEF1G) (P26641 5-437 limits assumed): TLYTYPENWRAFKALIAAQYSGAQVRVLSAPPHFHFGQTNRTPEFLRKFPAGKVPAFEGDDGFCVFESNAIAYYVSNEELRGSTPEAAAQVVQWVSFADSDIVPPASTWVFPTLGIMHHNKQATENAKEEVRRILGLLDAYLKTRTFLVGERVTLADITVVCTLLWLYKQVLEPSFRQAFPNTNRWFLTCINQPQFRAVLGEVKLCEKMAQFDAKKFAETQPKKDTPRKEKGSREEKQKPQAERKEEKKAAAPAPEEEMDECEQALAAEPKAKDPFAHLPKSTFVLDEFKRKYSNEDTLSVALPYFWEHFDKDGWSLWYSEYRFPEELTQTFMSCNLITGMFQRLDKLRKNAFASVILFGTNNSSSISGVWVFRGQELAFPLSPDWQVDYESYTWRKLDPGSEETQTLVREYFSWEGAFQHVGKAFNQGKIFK

[3] = biological target: Isoform 2 of Heat shock protein HSP 90-alpha (HSP90AA1) (Homo sapiens, UniProt P07900)
[4] = sheet Exp1, SKBR3 cells, 11 0.5 µM 3 h vs DMSO
[5] = sheet Exp1, SKBR3 cells, 11 0.5 µM 3 h vs with PU-H71 10 µM
[6] = sheet Merged, SKBR3 cells, 11 0.5 µM 3 h vs DMSO
[7] = sheet Merged, SKBR3 cells, 11 0.5 µM 3 h vs with PU-H71 10 µM

Abundance Ratio: (11) / (11 with PU-H71) ([1]; Exp3, SND1): 0.662
Abundance Ratio: (11) / (DMSO) ([1]; Exp3, SND1): 1.871
Abundances (Grouped): 11 ([1]; Exp3, SND1): 30.5
Abundances (Grouped): 11 with PU-H71 ([1]; Exp3, SND1, with PU-H71): 46.1
Abundance Ratio: (11) / (DMSO) [1, 4]: 2.172
Abundance Ratio: (11) / (11 with PU-H71) [1, 5]: 0.838
Abundance Ratio: (11) / (DMSO) [1, 6]: 2.016
Abundance Ratio: (11) / (11 with PU-H71) [1, 7]: 0.745
Abundance Ratio: (11) / (DMSO) ([2]; sheet Exp1): 4.152
Abundance Ratio: (11) / (11 with PU-H71) ([2]; sheet Exp1): 0.818
Abundance Ratio: (11) / (DMSO) ([2]; sheet Merged): 1.23
Abundance Ratio: (11) / (11 with PU-H71) ([2]; sheet Merged): 0.746
Abundance Ratio: (11) / (11 with PU-H71) ([3]; Exp3, HSP90AA1): 4.154
Abundance Ratio: (11) / (DMSO) ([3]; Exp3, HSP90AA1): 13.53
Abundances (Grouped): 11 ([3]; Exp3, HSP90AA1): 1235.3
Abundances (Grouped): 11 with PU-H71 ([3]; Exp3, HSP90AA1): 297.4
Abundance Ratio: (11) / (DMSO) [3, 4]: 12.472
Abundance Ratio: (11) / (11 with PU-H71) [3, 5]: 3.732
Abundance Ratio: (11) / (11 with PU-H71) ([3]; sheet Exp2, HSP90AA1): 3.971
Abundance Ratio: (11) / (DMSO) ([3]; sheet Exp2, HSP90AA1): 11.996
Abundances (Grouped): 11 ([3]; sheet Exp2, HSP90AA1): 903.3
Abundances (Grouped): 11 with PU-H71 ([3]; sheet Exp2, HSP90AA1): 227.5
Abundance Ratio: (11) / (DMSO) [3, 6]: 13.5 and 13.53
Abundance Ratio: (11) / (11 with PU-H71) [3, 7]: 4.154
Structure (SMILES): CC(=O)Oc1ccc2c(c1)Oc1cc(OC(C)=O)ccc1C21OC(=O)c2cc(C(=O)NCCOCCOCCNC(=O)CCCC(=O)N(CC#N)S(=O)(=O)c3ccc(C(=O)NCCCn4c(Sc5cc6c(cc5I)OCO6)nc5c(N)ncnc54)cc3)ccc21 [compound 11]
